The NIST ThermoML archive (doi:10.1016/j.jct.2011.12.025)
Numbers after ± are expanded uncertainties.

Assay: xn = mol fraction of the nth substance listed
Settings: 296.15 K, 101 kPa, Liquid, WTW LF538 Conductivity Meter

Q: Which results are given for `CCCCCCn1cc[n+](C)c1.F[B-](F)(F)F` [1-hexyl-3-methylimidazolium tetrafluoroborate] + O?
A: electrical conductivity (x1 = 0.000466): 0.231 ± 0.003 S/m; electrical conductivity (x1 = 0.000711): 0.329 ± 0.004 S/m; electrical conductivity (x1 = 0.000949): 0.419 ± 0.004 S/m; electrical conductivity (x1 = 0.001193): 0.505 ± 0.005 S/m; electrical conductivity (x1 = 0.001435): 0.584 ± 0.006 S/m; electrical conductivity (x1 = 0.001677): 0.663 ± 0.007 S/m; electrical conductivity (x1 = 0.001925): 0.74 ± 0.008 S/m; electrical conductivity (x1 = 0.002172): 0.812 ± 0.008 S/m; electrical conductivity (x1 = 0.002421): 0.875 ± 0.009 S/m; electrical conductivity (x1 = 0.002671): 0.949 ± 0.01 S/m; electrical conductivity (x1 = 0.002925): 1.014 ± 0.01 S/m; electrical conductivity (x1 = 0.003177): 1.07 ± 0.011 S/m; electrical conductivity (x1 = 0.003433): 1.126 ± 0.011 S/m; electrical conductivity (x1 = 0.003948): 1.25 ± 0.013 S/m; electrical conductivity (x1 = 0.004469): 1.36 ± 0.014 S/m; electrical conductivity (x1 = 0.005): 1.447 ± 0.014 S/m

Q: Which electrical conductivity (x1 = 0.000109) does the source give for `CCCCCCCC[n+]1ccn(C)c1.F[B-](F)(F)F` [1-methyl-3-octylimidazolium tetrafluoroborate] + O here?
A: 0.067 ± 0.002 S/m

Q: And the electrical conductivity (x1 = 0.000164)?
A: 0.095 ± 0.002 S/m

Q: What about the electrical conductivity (x1 = 0.000219) of the same compound?
A: 0.123 ± 0.002 S/m

Q: And the electrical conductivity (x1 = 0.000274)?
A: 0.149 ± 0.002 S/m

Q: What about the electrical conductivity (x1 = 0.000326) of the same compound?
A: 0.172 ± 0.002 S/m

Q: And the electrical conductivity (x1 = 0.000384)?
A: 0.196 ± 0.003 S/m

Q: What about the electrical conductivity (x1 = 0.000439) of the same compound?
A: 0.22 ± 0.003 S/m

Q: And the electrical conductivity (x1 = 0.000494)?
A: 0.24 ± 0.003 S/m

Q: And the electrical conductivity (x1 = 0.000549)?
A: 0.262 ± 0.003 S/m

Q: What about the electrical conductivity (x1 = 0.000605) of the same compound?
A: 0.284 ± 0.003 S/m

Q: What about the electrical conductivity (x1 = 0.00066) of the same compound?
A: 0.305 ± 0.003 S/m

Q: What about the electrical conductivity (x1 = 0.000715) of the same compound?
A: 0.326 ± 0.004 S/m

Q: What about the electrical conductivity (x1 = 0.000772) of the same compound?
A: 0.346 ± 0.004 S/m

Q: And the electrical conductivity (x1 = 0.000883)?
A: 0.386 ± 0.004 S/m

Q: And the electrical conductivity (x1 = 0.000995)?
A: 0.424 ± 0.004 S/m

Q: What about the electrical conductivity (x1 = 0.001107) of the same compound?
A: 0.463 ± 0.005 S/m

Q: For `CCCCCCCCCCn1cc[n+](C)c1.F[B-](F)(F)F` [1-decyl-3-methylimidazolium tetrafluoroborate] + O, which electrical conductivity (x1 = 2.5e-05) is on record?
A: 0.018 ± 0.003 S/m

Q: What about the electrical conductivity (x1 = 3.8e-05) of the same compound?
A: 0.026 ± 0.003 S/m

Q: And the electrical conductivity (x1 = 5.1e-05)?
A: 0.034 ± 0.003 S/m

Q: And the electrical conductivity (x1 = 6.4e-05)?
A: 0.042 ± 0.002 S/m

Q: And the electrical conductivity (x1 = 7.6e-05)?
A: 0.049 ± 0.002 S/m

Q: What about the electrical conductivity (x1 = 8.9e-05) of the same compound?
A: 0.056 ± 0.002 S/m

Q: And the electrical conductivity (x1 = 0.000102)?
A: 0.063 ± 0.002 S/m

Q: What about the electrical conductivity (x1 = 0.000115) of the same compound?
A: 0.07 ± 0.002 S/m

Q: What about the electrical conductivity (x1 = 0.000128) of the same compound?
A: 0.076 ± 0.002 S/m

Q: And the electrical conductivity (x1 = 0.000139)?
A: 0.082 ± 0.002 S/m

Q: And the electrical conductivity (x1 = 0.000153)?
A: 0.089 ± 0.002 S/m

Q: What about the electrical conductivity (x1 = 0.000166) of the same compound?
A: 0.096 ± 0.002 S/m

Q: And the electrical conductivity (x1 = 0.000179)?
A: 0.101 ± 0.002 S/m

Q: What about the electrical conductivity (x1 = 0.000204) of the same compound?
A: 0.113 ± 0.002 S/m

Q: And the electrical conductivity (x1 = 0.00023)?
A: 0.125 ± 0.002 S/m

Q: And the electrical conductivity (x1 = 0.000256)?
A: 0.137 ± 0.002 S/m
